Assays:
TCPTP (GST-TCPTP) = molecular target: T1, TCPTP (GST-TCPTP) (Homo sapiens, UniProt P17706); test: TCPTP inhibition, colorimetric pNPP assay; assay type: biochemical; conditions: for IC50: pNPP substrate, means ± SD of three replications, PC = oleanolic acid; for TCPTP/PTP1B (selectivity, fold): ratio of IC50 TCPTP to IC50 PTP1B
T1 sequence (P17706 1-415): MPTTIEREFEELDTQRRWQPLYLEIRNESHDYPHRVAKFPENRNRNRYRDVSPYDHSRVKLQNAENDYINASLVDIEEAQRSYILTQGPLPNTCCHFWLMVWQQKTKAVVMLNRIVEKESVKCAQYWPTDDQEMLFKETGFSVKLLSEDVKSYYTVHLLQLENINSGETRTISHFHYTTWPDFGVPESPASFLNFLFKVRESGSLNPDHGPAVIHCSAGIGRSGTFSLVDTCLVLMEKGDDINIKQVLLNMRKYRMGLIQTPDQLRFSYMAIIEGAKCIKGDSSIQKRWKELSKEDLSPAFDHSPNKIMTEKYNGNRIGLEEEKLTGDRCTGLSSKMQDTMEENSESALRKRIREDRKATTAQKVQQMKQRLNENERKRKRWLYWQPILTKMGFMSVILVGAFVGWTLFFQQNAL
Protocol: (§1) In addition to potency improvements, we investigated the selectivity of three representative compounds, namely, 1, 46 and 49 against other PTPs (TCPTP, SHP-1, SHP-2, LAR). […] Besides TCPTP, we tested the inhibitory activity of these compounds on other three homogenous enzymes SHP-1, SHP-2, and LAR [25].
(§2) A colorimetric assay to measure inhibition against PTP1B and TCPTP was performed in 96-well plates. Briefly, the tested compounds were solubilized in DMSO and serially diluted into concentrations for the inhibitory test. The assays were carried out in a final volume of 100 μL containing 50 mmol/L MOPS, pH 6.5, 2 mmol/L pNPP, 30 nmol/L GST-PTP1B or GST-TCPTP,and 2% DMSO, and the catalysis of pNPP was continuously monitored on a SpectraMax 340 microplate reader at 405 nm for 3 min at 30 °C. The IC50 value was calculated from the nonlinear curve fitting of the percent inhibition [inhibition (%)] vs. the inhibitor concentration using the Equation (1): Inhibition (%) = 100/[1 + (IC50/[I]k)] (1) where k is the Hill coefficient. To study the inhibition on the other PTPase family members, SHP1, SHP2 and LAR were prepared and assays were performed according to procedures described previously. Briefly, the enzymatic activity of the SHP1, SHP2 and LARwere determined at 30 °C by monitoring the dephosphorylation of substrate 3-o-methylfluorescein phosphate (OMFP), product was then detected at a 485 nm excitation wavelength and 530 nm emission wavelength by the EnVision multilabe plate reader (Perkin-Elmer Life Sciences, Boston, MA, USA). The assays were carried out in a final volume of 50 μL containing 50 mmol/L MOPS, pH 6.8, 10 μmol/L OMFP, 20 nmol/L recombinant enzyme, 2 mmol/L dithiothreitol , 1 mmol/L EDTA, and 2% DMSO. The initial rate of the dephosphorylation was presented by the early linear region of the enzymatic reaction kinetic curve, the inhibitory activity of the compound was continuously monitored.

SHP-1 = molecular target: T2, SHP-1 (Homo sapiens, UniProt P29350); test: SHP-1 inhibition, OMFP substrate assay; assay type: biochemical; conditions: for IC50: OMFP substrate, means ± SD of three replications, PC = Na3VO4
T2 construct: made in house
Protocol: as §1, §2

SHP-2 = molecular target: T3, SHP-2 (Homo sapiens, UniProt Q06124); test: SHP-2 inhibition, OMFP substrate assay; assay type: biochemical; conditions: for IC50: OMFP substrate, means ± SD of three replications, PC = Na3VO4
T3 construct: made in house
T3 sequence (Q06124 1-593): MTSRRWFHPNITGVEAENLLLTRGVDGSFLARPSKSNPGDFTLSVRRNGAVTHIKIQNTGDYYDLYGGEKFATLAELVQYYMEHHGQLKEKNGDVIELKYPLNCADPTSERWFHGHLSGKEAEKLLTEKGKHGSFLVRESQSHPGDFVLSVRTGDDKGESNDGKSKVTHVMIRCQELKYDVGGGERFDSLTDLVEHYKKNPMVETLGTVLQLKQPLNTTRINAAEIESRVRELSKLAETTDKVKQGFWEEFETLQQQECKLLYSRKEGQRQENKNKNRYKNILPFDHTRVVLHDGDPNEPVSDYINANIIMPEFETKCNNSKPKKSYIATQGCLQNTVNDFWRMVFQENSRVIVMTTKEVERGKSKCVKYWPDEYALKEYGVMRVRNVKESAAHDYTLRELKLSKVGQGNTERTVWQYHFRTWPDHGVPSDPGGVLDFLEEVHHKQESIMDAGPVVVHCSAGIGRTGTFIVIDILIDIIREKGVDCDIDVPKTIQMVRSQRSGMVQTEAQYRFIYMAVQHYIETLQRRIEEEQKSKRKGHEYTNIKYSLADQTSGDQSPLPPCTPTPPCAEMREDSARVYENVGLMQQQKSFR
Protocol: as §1, §2

PTP1B (GST-PTP1B) = molecular target: T4, PTP1B (GST-PTP1B) (Homo sapiens, UniProt P18031); test: PTP1B inhibition, colorimetric pNPP assay; assay type: biochemical; conditions: pNPP substrate; for inhibition at 20 µg/mL: PTP1B, compound at 20 μg/mL
T4 sequence (P18031 1-435): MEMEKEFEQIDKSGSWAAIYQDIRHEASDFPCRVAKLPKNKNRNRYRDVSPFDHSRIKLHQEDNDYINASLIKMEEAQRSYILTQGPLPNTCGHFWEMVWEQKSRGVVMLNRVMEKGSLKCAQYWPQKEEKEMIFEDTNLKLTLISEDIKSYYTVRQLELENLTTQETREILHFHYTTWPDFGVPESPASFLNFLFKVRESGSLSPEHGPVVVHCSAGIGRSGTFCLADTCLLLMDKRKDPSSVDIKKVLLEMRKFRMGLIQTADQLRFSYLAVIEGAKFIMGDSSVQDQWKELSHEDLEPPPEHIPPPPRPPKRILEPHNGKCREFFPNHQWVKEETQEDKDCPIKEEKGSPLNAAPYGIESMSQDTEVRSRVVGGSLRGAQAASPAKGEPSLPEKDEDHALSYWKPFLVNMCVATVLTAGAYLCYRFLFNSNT

LAR = molecular target: T5, LAR (Homo sapiens, UniProt P10586); test: LAR inhibition, OMFP substrate assay; assay type: biochemical; conditions: NA = no activity (inhibitory ratio lower than 50% at the dose of 20 μg/mL), PC = Na3VO4
T5 sequence (P10586 1352-1607 limits assumed): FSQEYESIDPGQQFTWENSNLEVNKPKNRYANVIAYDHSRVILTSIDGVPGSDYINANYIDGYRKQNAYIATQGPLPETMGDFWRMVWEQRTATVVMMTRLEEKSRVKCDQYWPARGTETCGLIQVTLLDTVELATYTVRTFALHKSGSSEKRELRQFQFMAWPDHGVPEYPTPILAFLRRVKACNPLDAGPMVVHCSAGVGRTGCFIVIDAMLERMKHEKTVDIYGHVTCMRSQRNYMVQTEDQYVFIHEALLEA
Protocol: as §1
as §2, with “To study the inhibition on the other PTPase family members, SHP1, SHP2 and LAR were prepared and assays were performed according to procedures described previously.” left out, “The assays were carried out in a final volume of 50 μL containing 50 mmol/L MOPS, pH 6.8, 10 μmol/L OMFP, 20 nmol/L recombinant enzyme, 2 mmol/L dithiothreitol , 1 mmol/L EDTA, and 2% DMSO. The initial rate of the dephosphorylation was presented by the early linear region of the enzymatic reaction kinetic curve, the inhibitory activity of the compound was continuously monitored.” left out

[1] = means ± SD of three replications, OA/PC = oleanolic acid positive control

T2 sequence (P29350 whole entry): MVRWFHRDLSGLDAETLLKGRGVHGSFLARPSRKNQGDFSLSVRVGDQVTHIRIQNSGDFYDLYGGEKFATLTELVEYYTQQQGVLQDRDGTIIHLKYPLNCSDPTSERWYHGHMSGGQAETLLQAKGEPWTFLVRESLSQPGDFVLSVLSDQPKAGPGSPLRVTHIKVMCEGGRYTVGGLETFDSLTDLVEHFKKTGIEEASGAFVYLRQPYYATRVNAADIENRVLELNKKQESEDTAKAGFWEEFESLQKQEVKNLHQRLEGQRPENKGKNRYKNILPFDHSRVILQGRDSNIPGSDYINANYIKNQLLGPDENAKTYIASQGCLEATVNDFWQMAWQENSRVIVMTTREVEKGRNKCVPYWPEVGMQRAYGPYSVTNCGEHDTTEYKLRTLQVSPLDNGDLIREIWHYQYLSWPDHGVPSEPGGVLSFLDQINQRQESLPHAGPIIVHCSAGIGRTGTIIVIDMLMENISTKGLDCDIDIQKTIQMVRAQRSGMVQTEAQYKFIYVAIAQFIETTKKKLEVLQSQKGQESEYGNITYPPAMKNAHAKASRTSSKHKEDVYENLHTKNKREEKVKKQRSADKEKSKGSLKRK

IC50 (TCPTP (GST-TCPTP)) [µM] | TCPTP/PTP1B (selectivity, fold) (TCPTP (GST-TCPTP)) | IC50 (SHP-1) [µM] | IC50 (SHP-2) [µM] | inhibition at 20 µg/mL (PTP1B (GST-PTP1B)) [%] | IC50 (PTP1B (GST-PTP1B); [1]) [µM] | selectivity for PTP1B over SHP-1 (SHP-1; from IC50 values) | selectivity for PTP1B over SHP-2 (SHP-2; from IC50 values) | IC50 PTP1B (PTP1B (GST-PTP1B); [1]) | melting point [°C] | IC50 LAR (LAR) | SMILES
4.83 ± 0.9 | 0.58 | 23.3 ± 2.03 | 31.2 ± 7.72 | 98.6 | 8.34 ± 1.07 | – | – | – | – | – | O=C(O)c1ccc(C2Nc3cccc4cccc(c34)N2)cc1 [Compound 1, 4-(2,3-dihydro-1H-perimidin-2-yl)benzoic acid]
1.24 ± 0.12 | 2.10 | 2.72 ± 0.3 | 2.5 ± 0.22 | 99.4 | 0.59 ± 0.05 | about 4 fold | about 4 fold | submicromolar | 86.7 to 88.4 | no visible activities | O=C(O)CCCCCNC(=O)c1ccc(C2Nc3cccc4cccc(c34)N2)nc1 [Compound 49, 6-[6-(2,3-Dihydro-1H-perimidin-2-yl)nicotinamido]hexanoic acid]

From article PMC6271978, “1H-2,3-Dihydroperimidine Derivatives: A New Class of Potent Protein Tyrosine Phosphatase 1B Inhibitors” (Molecules, 2013)
